Measured values: US20220411879A1, “COMPOSITIONS AND METHODS FOR REGULATING EGFR AMPLIFICATION IN CANCER CELLS FOR IMPROVING EFFICACY OF EGFR-TARGETED ANTI-CANCER AGENTS” (Institute for Cancer Research d/b/a The Research Institute …, priority 2019, published 2022)

Columns and labels:
Type in all cases: cell-based, human
RPE cells [1] = assay: DNA FISH for EGFR DNA copy number in RPE cells
Method: The FISH protocol was performed as described previously in Black et al. (2013). Briefly, cell suspensions were fixed in ice-cold methanol:glacial acetic acid (3:1) solution for a minimum of four hours, before being spun onto 8 Chamber Polystyrene vessel tissue culture treated glass slides (Falcon, Fisher Scientific), using a centrifuge at 900 rpm. The slides were air-dried and incubated in 2×SSC buffer for 2 min, followed by serial ethanol dilution (70%, 85% and 100%) incubations for 2 min each, for a total of 6 min. Air-dried slides were hybridized with probes that were diluted in appropriate buffer overnight at 37° C., following a 4 minute incubation on a heat block at 78° C. The slides were washed the next day for 3 to 4 mins in appropriate wash buffers at 69° C. with 0.4×SSC for Cytocell probes or commercially available Agilent wash buffer 1 followed by washing in 2×SSC with 0.05% Tween-20 (Cytocell probes) or commercially available Agilent wash buffer 2 (Agilent probes). The slides were incubated in 1 mg/mL DAPI solution made in 1% BSA-PBS, followed by a final 1×PBS wash. After the wash, the slides were mounted with ProLong Gold antifade reagent (Invitrogen).
FISH images were acquired using an Olympus IX81 or Olympus IX83 spinning disk microscope at 40× magnification and analyzed using Slidebook 6.0 softwares. A minimum of 25 z-planes with 0.5 um step size was acquired for each field. Copy number gains for EGFR, 7 centromere (7C), 7p telomere (7p22.3), IKZF1 (7p12.2) and 8 centromere (8C) were scored in RPE cells as three or more foci. A minimum of 100 nuclei are scored for each independent experiment.
For hypoxia, EGF and KDM5i combinatorial experiments, RPE cells were pre-treated with 1 nM of KDM4 inhibitor exactly 24 hours prior to hypoxic exposure or EGF treatment. Immediately before transferring cells to hypoxia, or before drug or growth factor treatment, KDM4 inhibitor was supplemented to cells again at a concentration of 1 nM (double spike). Cells were then cultured in the respective conditions for 24 hours prior to harvesting for RNA, protein, cell cycle and DNA FISH analysis.
RPE cells were treated with KDM5 inhibitor (C70) at a final concentration of 1 μM for a total treatment time of 48 hours. […]

RPE cells [2] = assay: Trypan blue exclusion assay of EGFR inhibitor sensitivity in RPE cells; conditions: KDM5i (1 μM) and Gefitinib (2.5 μM), 72 hours
Method: Control or stable KDM4A overexpression RPE cells were plated in 24 well tissue culture plates at a density of 5×10^3. […] Cells were stained with trypan blue solution (Sigma Aldrich) to assess cell viability and counted using a haemocytometer. Each condition was plated in triplicate wells and each well was counted in duplicate. An average was taken of all triplicates and used as a representative total.
Control or stable KDM4A overexpression RPE cells were plated in 24 well tissue culture plates at a density of 8×10^3. […] Cells were stained with trypan blue solution (Sigma Aldrich) to assess cell viability and counted using a hemocytometer. Each condition was plated in triplicate wells and each well was counted in duplicate. An average was taken of all triplicates and used as a representative total.
Parental RPE cells are plated in 24 well tissue culture plates, in triplicate at a density of 5×10^3. […] Cells are cultured for a total of 72 hours under drug treatment conditions before being harvested, stained with trypan blue and counted using a haemocytometer.

RPE cells [3] = assay: Cell proliferation assay with EGF stimulation in RPE cells
Method: Control, KDM4A overexpression or wild type parental RPE cells were plated at a density of 5×10^3 per well in a 6 well tissue culture plate. Each condition was plated in triplicate for each independent experiment. Cells were allowed to adhere for 16 hours before fresh complete media was added containing a final concentration of 50 ng/ml human recombinant EGF (Abcam). For control and KDM4A overexpression RPE cells, cells were harvested after 48 hours of EGF treatment and cell number calculated using a haemocytometer. For combinatorial drug experiments using parental RPE cells, EGF was added for 24 hours, following a 24 hour drug treatment with either KDM5i (1 μM) or EZH2i (3 μM).
Parental RPE cells were plated in 24 well tissue culture plates, in triplicate at a density of 5×10^3. Cells were allowed to adhere for approximately 16 hours before media was supplemented with EZH2 inhibitor (C24) at a final concentration of 3 μM. After an initial 24 hour treatment, human recombinant EGF was supplemented to each well at a final concentration of 50 ng/ml. After 48 hours of EGF treatment, cells were harvested and counted using a haemocytometer.

EGFR transcripts = assay: qPCR of EGFR transcripts in RPE cells; conditions: 50 ng/ml EGF, 24 hours
Method: Cells were washed and collected by trypsinization, followed by washing in PBS two times. Cell pellet was resuspended in Qiazol reagent (QIAGEN) and stored at −80° C. before further processing. Total RNA was extracted using miRNAeasy Mini Kit (QIAGEN) with an on-column DNase digestion according to the manufacturer's instructions. RNA was quantified using NanoDrop 2000 (Thermo Scientific). Single strand cDNA was prepared using Super Script IV first strand synthesis kit (Invitrogen) using random hexamers. Expression levels were analyzed using FastStart Universal SYBR Green Master (ROX) (Roche) according to the manufacturer's instructions on a LightCycler 480 PCR machine (Roche). Samples were normalized to β-actin.

KDM4A = assay: Immunoblot of KDM4A protein levels in RPE cells; conditions: EGF 50 ng/ml, 24 hours
Method: Cells were trypsinized and washed two times with PBS before resuspending in RIPA lysis buffer [50 mM Tris pH 7.4, 150 mM NaCl, 0.25% Sodium Deoxycholate, 1% NP40, 1 mM EDTA, 10% Glycerol] freshly supplemented with protease inhibitor and PhosSTOP phosphatase inhibitor cocktails (Roche). Cells were lysed on ice for 15 min and stored at −80° C. until further processing. Lysates were sonicated for 15 min (30 sec ON and 30 sec OFF cycle) at 70% amplitude in QSonica Q700 sonicator (Qsonica) followed by centrifugation at 12,000 rpm for 15 min. Cell lysate was transferred to a fresh tube and protein estimations were performed with Pierce BCA reagent (Thermo Scientific). Equal amounts of proteins were separated by SDS gel electrophoresis and transferred on nitrocellulose membrane (BioTrace NT, Pall Life Sciences) for at least 3 hr at a constant current. The membranes were blocked for at least 1 hr in 5% BSA-PBST (1×PBS with 0.5% Tween-20) or 5% milk-PBST and probed over night with specific antibodies as follows at the following dilutions: anti-GFP (Neuro mAb) (1:100); anti-β-Actin (1:10,000); anti-KDM4A (Neuro mAb) (1:100); anti-Flag (Sigma Aldrich) (1:500); anti-KDMSA (abcam) (1:500); anti-HALO (Promega) (1:1000); anti-Carbonic Anhydrase IX (Abcam) (1:1000). […]

RPE cells [4] = assay: Scratch assay (cell migration) in RPE cells; conditions: KDM4A overexpressing RPE cells vs control, 50 ng/ml EGF, 24 hours
Method: Control or stable KDM4A overexpression RPE cells were plated in 6 well tissue culture plates at a density of 2×10^5. Cells were allowed to adhere to plates for 24 hours. After 24 hours in culture, a p200 pipette tip was used to introduce a scratch wound in the centre of the well from the 12 o'clock to 6 o'clock position. Following the induction of the scratch wound, media was removed from each well and 1 ml of DMEM was used to rinse the wells, removing any cellular debris. After this wash, 3 ml of DMEM supplemented with vehicle or human recombinant EGF (Abcam) to a final concentration of 50 ng/ml, was added to each well. Cells were imaged at 0 hrs, 12 hrs and 24 hrs, using the EVOS imaging platform at 4× magnification. Scratch wound measurements were performed using the EVOS software with a minimum of 5 measurements taken at various locations, per scratch wound. All measurements were averaged. Each condition was performed in triplicate for each independent experiment.

Compound	EGFR copy gains after drug removal (washout) (RPE cells [1]; RPE cells, KDM5i 1 μM, 24 hrs after removal)	EGFR copy gains (RPE cells [1]; RPE cells, KDM5i (C70) 1 μM)	percentage of cells (trypan blue exclusion) on co-treatment with Gefitinib (RPE cells [2])	cell proliferation in response to EGF (RPE cells [3]; RPE cells pre-treated with KDM5i (1 μM) 24 hours, then 50 ng/ml EGF 24 hours, compared to KDM5i alone)	EGFR DNA copy number, EGF in KDM4A overexpressing cells (RPE cells [1]; RPE cells stably overexpressing KDM4A, 50 ng/ml EGF, 24 hours)	EGFR copy number gains (RPE cells [1]; RPE cells, 50 ng/ml EGF, 24 hours)	EGFR DNA copy number, EGF combined with hypoxia (RPE cells [1]; RPE cells, hypoxia 24 hours then 50 ng/ml EGF under hypoxia 24 hours)	EGFR transcripts (qPCR) (EGFR transcripts)	cell proliferation (RPE cells [3]; KDM4A overexpressing RPE cells vs control, 50 ng/ml EGF, 48 hours)	KDM4A protein levels (KDM4A)	cell migration (scratch assay) (RPE cells [4])
CCOC(=O)c1ccnc(CNCC(=O)N(CC)CCN(C)C)c1 [KDM5i, reference compound]	returned to baseline	promoted EGFR copy gains	reduced the percentage of cells relative to controls and single agent treatment	increased cell proliferation with supplemented EGF							
EGF: human recombinant EGF (Abcam), the preferred ligand of EGFR					additive increases in EGFR DNA copy number	significant copy number gains of the EGFR locus	modest but additive increase in EGFR DNA copy number	increased EGFR transcripts	proliferate faster	does not impact KDM4A levels	migrate faster
